In US10344019B2 (priority 2010, dated 2019):
Like-named read-outs stand apart in the source and are kept apart here.

Legend:
Experiment in all cases: microbe, parasite or virus in culture
Type in all cases: cell-based
[1] = test system: HCV 1a RLuc cells (dicistronic genotype 1a H77 replicon, RLuc reporter); details: genotype 1a H77 replicon, read-out: 1a
Description: (§1) Evaluation of cell-based anti-HCV activity: Antiviral potency (EC50) was determined using a Renilla luciferase (RLuc)-based HCV replicon reporter assay. To perform the assay for genotype 1 and 2a JFH-1, HCV 1b RLuc cells (harboring a dicistronic genotype 1b Con1 replicon that encodes a RLuc reporter), or HCV 1a RLuc cells (harboring a dicistronic genotype 1a H77 replicon that encodes a RLuc reporter), or HCV 2a JFH-1 Rluc cells (harboring a dicistronic genotype 2a JFH-1 replicon that encodes a RLuc reporter) were dispensed into 384-well plates. To perform the assay for genotype 2a (with M31 present) or 2b, HCV 2a Rluc or 2b Rluc cells (both with M31 present) harboring a dicistronic NS5A chimeric genotype 2a JFH-1 replicon that encodes a RLuc reporter and either genotype 2a J6 strain NS5A gene or genotype 2b MD2b-1 NS5A gene (based on Los Alamos HCV database isolates, both with M31 present) respectively, were dispensed into 384-well plates. To perform the assay for genotype 3 and 4, HCV 3a RLuc or 4a Rluc cells harboring a dicistronic NS5A chimeric genotype 1b Con1 replicon that encodes a RLuc reporter and either a consensus genotype 3a NS5A gene or genotype 4a NS5A gene (based on Los Alamos HCV database isolates) respectively, were dispensed into 384-well plates. Compounds were re-suspended in DMSO at a concentration of 10 mM and serially diluted in DMSO either manually or using an automated pipeting instrument. Serially diluted compounds were mixed with cell culture media and added to the seeded cells. […] 72 hours later, cells were lysed and Renilla luciferase activity quantified as recommended by the manufacturer (Promega-Madison, Wis.). Non-linear regression was performed to calculate EC50 values.

[2] = test system: HCV 1b RLuc cells (dicistronic genotype 1b Con1 replicon, RLuc reporter); details: Hepatitis C virus, read-out: 1b (nM)
Description: as §1

[3] = test system: HCV 2a JFH-1 Rluc cells (dicistronic genotype 2a JFH-1 replicon, RLuc reporter); details: genotype 2a JFH-1 replicon, read-out: 2a JFH
Description: as §1

[4] = test system: HCV 3a RLuc cells (NS5A chimeric genotype 1b Con1 replicon with consensus genotype 3a NS5A gene)
Description: as §1

[5] = Hepatitis C virus, RLuc reporter
[6] = Hepatitis C virus, read-out: 3a, genotype 3a NS5A chimeric 1b Con1 replicon
[7] = Hepatitis C virus, 72 h, Table 2, 72 hours
[8] = Hepatitis C virus, read-out: 3a, Table 2, genotype 3a NS5A chimeric replicon
[9] = Hepatitis C virus, 72 h, Table 1, 72 hours

CCN(CC)C(C(=O)N1CCC[C@H]1c1ncc(-c2ccc(-c3ccc4cc(-c5cnc([C@@H]6CCCN6C(=O)[C@@H](NC(=O)OC)C(C)C)[nH]5)ccc4c3)cc2)[nH]1)c1ccccc1 (some centres unmarked) [Example 138]
EC50 [1, 5]: 0.001 to 0.999 nM | EC50 [2]: 0.006 nM | EC50 [3, 5]: 0.001 to 0.999 nM | EC50 [4, 6]: 0.001 to 0.99 nM

COC(=O)N[C@H](C(=O)N1CCC[C@H]1c1ncc(-c2ccc3cc(-c4ccc(-c5cnc([C@@H]6CCCN6C(=O)[C@](C)(NC(=O)OC)c6ccccc6)[nH]5)cc4)ccc3c2)[nH]1)C(C)C [Example 162]
EC50 [1, 5]: 1 to 44 nM | EC50 [2]: 0.01 nM | EC50 [3, 5]: 1 to 44 nM | EC50 [4, 6]: 1 to 4.99 nM

COC(=O)NC(C(=O)N1C[C@H](C)C[C@H]1c1ncc(-c2ccc(-c3ccc4cc(-c5cnc([C@@H]6CCCN6C(=O)[C@@H](NC(=O)OC)C6CCOCC6)[nH]5)ccc4c3)cc2)[nH]1)c1cccnc1 (some centres unmarked) [Example 214]
EC50 [1, 5]: 0.001 to 0.999 nM | EC50 [2]: 0.06 nM | EC50 [3, 5]: 0.001 to 0.999 nM | EC50 [4, 6]: 0.001 to 0.99 nM

COC(=O)N[C@H](C(=O)N1CCC[C@H]1c1nc(-c2ccc3cc(-c4ccc(-c5cnc([C@@H]6CCCN6C(=O)[C@@H](c6ccccc6)N(C)C)[nH]5)cc4)ccc3c2)c[nH]1)C(C)C [Example 31]
EC50 [1, 7]: 0.001 to 0.999 nM | EC50 ([2]; 72 h): 0.014 nM | EC50 [3, 7]: 0.001 to 0.999 nM | EC50 [4, 8]: 0.001 to 0.99 nM

COC(=O)N[C@H](C(=O)N1CCC[C@H]1c1nc2ccc(-c3ccc(-c4ccc5c(c4)CCc4nc([C@@H]6CCCN6C(=O)[C@H](NC(=O)OC)c6ccccc6)[nH]c4-5)cc3)cc2[nH]1)C(C)C [Example 166]
EC50 [1, 5]: 1 to 44 nM | EC50 [2]: 0.018 nM | EC50 [3, 5]: 0.001 to 0.999 nM | EC50 [4, 6]: 0.001 to 0.99 nM

COC(=O)NC(C(=O)N1CCC[C@H]1c1ncc(-c2ccc(-c3ccc4cc(-c5cnc([C@@H]6CCCN6C(=O)[C@@H](NC(=O)OC)C(C)C)[nH]5)ccc4c3)cc2)[nH]1)c1ccccc1Cl (some centres unmarked) [Example 104]
EC50 [1, 5]: 0.001 to 0.999 nM | EC50 [2]: 0.007 nM | EC50 [3, 5]: 0.001 to 0.999 nM | EC50 [4, 6]: 0.001 to 0.99 nM

COC(=O)N[C@H](C(=O)N1CCC[C@H]1c1ncc(-c2nc3cc4sc(-c5cnc([C@@H]6CCCN6C(=O)[C@@H](NC(=O)OC)C(C)C)[nH]5)nc4cc3s2)[nH]1)C(C)C [Example 141]
EC50 [1, 5]: 1 to 44 nM | EC50 [2]: 0.181 nM | EC50 [3, 5]: 1 to 44 nM | EC50 [4, 6]: > 5 nM

COC(=O)N[C@H](C(=O)N1CCC[C@H]1c1ncc(-c2ccc3cc(-c4ccc(-c5cnc([C@@H]6CC(=O)CN6C(=O)[C@@H](c6ccccc6)N(C)C)[nH]5)cc4)ccc3c2)[nH]1)C(C)C [Example 34]
EC50 [1, 7]: 0.001 to 0.999 nM | EC50 ([2]; 72 h): 0.018 nM | EC50 [3, 7]: 0.001 to 0.999 nM | EC50 [4, 8]: 0.001 to 0.99 nM

COC(=O)N[C@@H](C)C(=O)N1CCC[C@H]1c1ncc(-c2ccc3cc(-c4ccc(-c5cnc([C@@H]6CCCN6C(=O)[C@H](NC(=O)OC)c6ccccc6)[nH]5)cc4)ccc3c2)[nH]1 [Example 164]
EC50 [1, 5]: 0.001 to 0.999 nM | EC50 [2]: 0.01 nM | EC50 [3, 5]: 0.001 to 0.999 nM | EC50 [4, 6]: 0.001 to 0.99 nM

COC(=O)N[C@H](C(=O)N1CCC[C@H]1c1ncc(-c2ccc(-c3ccc4cc(-c5cnc([C@@H]6CCCN6C(=O)[C@@H](NC(=O)OC)C(C)C)[nH]5)ccc4c3)cc2)[nH]1)c1ccccc1OC [Example 105]
EC50 [1, 5]: 1 to 44 nM | EC50 [2]: 0.042 nM | EC50 [3, 5]: 1 to 44 nM | EC50 [4, 6]: 1 to 4.99 nM

COC(=O)N[C@H](C(=O)N1CCC[C@H]1c1ncc(-c2ccc(-c3ccc4cc(-c5cnc([C@@H]6CCCN6C(=O)[C@H](NC(=O)OC)c6ccccc6)[nH]5)ccc4c3)cc2)[nH]1)C(C)C [Example 30]
EC50 [1, 7]: 0.001 to 0.999 nM | EC50 ([2]; 72 h): 0.008 nM | EC50 [3, 7]: 0.001 to 0.999 nM | EC50 [4, 8]: 0.001 to 0.99 nM

CCN(CC)[C@@H](C(=O)N1CCC[C@H]1c1ncc(-c2ccc3cc(-c4ccc(-c5cnc([C@@H]6CC7(COCO7)CN6C(=O)[C@@H](NC(=O)OC)C(C)C)[nH]5)cc4)ccc3c2)[nH]1)c1ccccc1 (some centres unmarked) [Example 36]
EC50 [1, 7]: 0.001 to 0.999 nM | EC50 ([2]; 72 h): 0.01 nM | EC50 [3, 7]: 0.001 to 0.999 nM | EC50 [4, 8]: 0.001 to 0.99 nM

COC(=O)N[C@H](C(=O)N1Cc2ccccc2C1c1nc(-c2ccc(-c3ccc4cc(-c5cnc([C@@H]6CCCN6C(=O)[C@@H](NC(=O)OC)C(C)C)[nH]5)ccc4c3)cc2)c[nH]1)C(C)C (some centres unmarked) [Example 112]
EC50 [1, 5]: 0.001 to 0.999 nM | EC50 [2]: 0.018 nM | EC50 [3, 5]: 1 to 44 nM | EC50 [4, 6]: > 5 nM

COC(=O)N[C@H](C(=O)N1CC2(C[C@H]1c1ncc(-c3ccc(-c4ccc5cc(-c6cnc([C@@H]7CCCN7C(=O)[C@H](NC(=O)OC)c7ccccc7)[nH]6)ccc5c4)cc3)[nH]1)OCCO2)C(C)C [Example 35]
EC50 [1, 7]: 0.001 to 0.999 nM | EC50 ([2]; 72 h): 0.008 nM | EC50 [3, 7]: 0.001 to 0.999 nM | EC50 [4, 8]: 0.001 to 0.99 nM

COC(=O)N[C@H](C(=O)N1CC2(C[C@H]1c1ncc(-c3ccc4c(c3)C(F)(F)c3cc(-c5ccc6nc(C7[C@H]8CC[C@H](C8)N7C(=O)[C@@H](NC(=O)OC)C(C)C)[nH]c6c5)ccc3-4)[nH]1)OCCO2)C(C)C (some centres unmarked) [Example 38]
EC50 [1, 7]: 0.001 to 0.999 nM | EC50 ([2]; 72 h): 0.003 nM | EC50 [3, 7]: 1 to 44 nM | EC50 [4, 8]: > 5 nM

COC(=O)N[C@H](C(=O)N1C[C@H](C#N)C[C@H]1c1ncc(-c2ccc3cc(-c4ccc(-c5cnc([C@@H]6CCCN6C(=O)[C@H](NC(=O)OC)c6ccccc6)[nH]5)cc4)ccc3c2)[nH]1)C(C)C [Example 135]
EC50 [1, 5]: 0.001 to 0.999 nM | EC50 [2]: 0.006 nM | EC50 [3, 5]: 0.001 to 0.999 nM | EC50 [4, 6]: > 5 nM

CCO[C@H]1C[C@@H](c2ncc(-c3ccc(-c4ccc5cc(-c6cnc([C@@H]7CCCN7C(=O)[C@@H](NC(=O)OC)C(C)C)[nH]6)ccc5c4)cc3)[nH]2)N(C(=O)[C@@H](c2ccccc2)N(C)C)C1 [Example 158]
EC50 [1, 5]: 0.001 to 0.999 nM | EC50 [2]: 0.01 nM | EC50 [3, 5]: 0.001 to 0.999 nM | EC50 [4, 6]: 0.001 to 0.99 nM

COC(=O)N[C@H](C(=O)N1CCC[C@H]1c1ncc(-c2ccc3cc(-c4ccc(-c5cnc([C@@H]6CCCN6C(=O)[C@H](NC(=O)OC)c6cccc(PC)c6)[nH]5)cc4)ccc3c2)[nH]1)C(C)C (some centres unmarked) [Example 185]
EC50 [1, 5]: 1 to 44 nM | EC50 [2]: 0.008 nM | EC50 [3, 5]: 0.001 to 0.999 nM | EC50 [4, 6]: 0.001 to 0.99 nM

COC(=O)NC(C(=O)N1C[C@H](C)C[C@H]1c1ncc(-c2ccc(-c3ccc4cc(-c5cnc([C@@H]6CCCN6C(=O)[C@@H](NC(=O)OC)C6CCOCC6)[nH]5)ccc4c3)cc2)[nH]1)c1cnccn1 (some centres unmarked) [Example 254]
EC50 [1, 5]: 0.001 to 0.999 nM | EC50 [2]: 0.077 nM | EC50 [3, 5]: 0.001 to 0.999 nM

COC(=O)NC(C(=O)N1C[C@H](C)C[C@H]1c1ncc(-c2ccc(-c3ccc4cc(-c5cnc([C@@H]6CCCN6C(=O)[C@@H](NC(=O)OC)C(C)C)[nH]5)ccc4c3)cc2)[nH]1)c1cnccn1 (some centres unmarked) [Example 255]
EC50 [1, 5]: 0.001 to 0.999 nM | EC50 [2]: 0.015 nM | EC50 [3, 5]: 1 to 44 nM

COC(=O)N[C@H](C(=O)N1CCC[C@H]1c1ncc(-c2ccc3cc(-c4ccc(-c5cnc([C@@H]6C[C@@H](F)CN6C(=O)[C@H](NC(=O)OC)c6ccccc6)[nH]5)cc4)ccc3c2)[nH]1)C(C)C [Example 140]
EC50 ([1]; RLuc reporter): 0.001 to 0.999 nM | EC50 ([4]; read-out: 3a, genotype 3a NS5A chimeric 1b Con1 replicon): 0.001 to 0.99 nM

COC(=O)N[C@H](C(=O)N1CCC[C@H]1c1ncc(-c2ccc3c(c2)CCc2cc(-c4cnc([C@@H]5CCCN5C(=O)C(c5ccccc5)N(C)C)[nH]4)ccc2-3)[nH]1)C(C)C (some centres unmarked) [Example 190]
EC50 [4, 6]: 0.001 to 0.99 nM

COC(=O)N[C@H](C(=O)N1CCC[C@H]1c1ncc(-c2ccc3cc(-c4ccc(-c5cnc([C@@H]6CCCN6C(=O)[C@@H](NC(=O)OCc6ccccc6)C6CCSCC6)[nH]5)cc4)ccc3c2)[nH]1)C(C)C [Example 276]
EC50 ([1]; RLuc reporter): > 44 nM | EC50 ([3]; RLuc reporter): > 44 nM

COC(=O)N[C@H](C(=O)N1CCC[C@H]1c1ncc(-c2ccc3cc(-c4ccc(-c5cnc([C@@H]6CCCN6C(=O)[C@H](NC(=O)OC(C)(C)C)c6ccccc6)[nH]5)cc4)ccc3c2)[nH]1)C(C)C [Example 186]
EC50 [1, 5]: 0.001 to 0.999 nM | EC50 [2]: 0.004 nM | EC50 [3, 5]: 0.001 to 0.999 nM

COC(=O)NC(C(=O)N1CCC[C@@H]1c1ncc(-c2cc3c4c(c2)OCc2cc(-c5cnc([C@H]6CCCN6C(=O)[C@@H](NC(=O)OC)C(C)C)[nH]5)cc(c2-4)OC3)[nH]1)C(C)C (some centres unmarked) [Example 11]
EC50 [1, 9]: 1 to 44 nM | EC50 ([2]; 72 h): 0.258 nM | EC50 [3, 9]: 0.001 to 0.999 nM
